Results on 14 compounds are retold here after ChEMBL document CHEMBL3421548, “PMA-SiO2 catalyzed synthesis of indolo[2,3-c]quinolines as potent anti cancer agents” (Bioorg Med Chem Lett, 2015).

For orientation: IC50 means the concentration that inhibits the measured activity by half. Read a high IC50 as lower potency.

The source made the active and inactive calls. The rule behind the calls is not given here.

One assay relates to A549. Nature of the assay: Cytotoxicity against human A549 cells after 48 hrs by SRB method. Format: functional, cell-based. The note with it: A549, 48 h. Background: Sulforhodamine B stains cellular protein and so reports cell mass.
Assay [1] relates to DU-145. The assay can be described thus: Cell cycle arrest in human DU145 cells assessed as accumulation at G1 phase at 25 uM after 24 hrs by RNase/propidium iodide staining-based flow cytometry (reference value: 82.57%). Format: functional. Background: In flow cytometry, cells or beads pass a laser one at a time.
Assay [2] has as its system DU-145. The assay can be described thus: Cell cycle arrest in human DU145 cells assessed as accumulation at G2/M phase at 25 uM after 24 hrs by RNase/propidium iodide staining-based flow cytometry (reference value: 13.7%). Format: functional.
Assay [3] relates to DU-145. The assay can be described thus: Cell cycle arrest in human DU145 cells assessed as accumulation at G2/M phase at 5 uM after 24 hrs by RNase/propidium iodide staining-based flow cytometry (reference value: 13.7%). Format: functional.
Assay [4] deals with DU-145. Nature of the assay: Cytotoxicity against human DU145 cells after 48 hrs by SRB method. The assay is classed as functional, cell-based. The note with it: DU-145, 48 h.
The subject of the next assay is MCF7. Nature of the assay: Cytotoxicity against human MCF7 cells after 48 hrs by SRB method. The assay is classed as functional, cell-based. The note with it: MCF7, 48 h.
The next assay relates to HeLa. Nature of the assay: Cytotoxicity against human HeLa cells after 48 hrs by SRB method. The assay is classed as functional, cell-based.
Assay [5] concerns DU-145. Nature of the assay: Cell cycle arrest in human DU145 cells assessed as accumulation at S phase at 15 uM after 24 hrs by RNase/propidium iodide staining-based flow cytometry (reference value: 4.24%). Format: functional.
Assay [6] deals with DU-145. The assay can be described thus: Reduction in NF-kappaB p65 phosphorylation in human DU145 cells at 5 to 25 uM after 24 hrs by Western blotting analysis. Format: functional, cell-based.
The subject of assay [7] is DU-145. Nature of the assay: Cell cycle arrest in human DU145 cells assessed as accumulation at G2/M phase at 15 uM after 24 hrs by RNase/propidium iodide staining-based flow cytometry (reference value: 13.7%). Format: functional.
The subject of assay [8] is DU-145. Nature of the assay: Cell cycle arrest in human DU145 cells assessed as accumulation at G1 phase at 50 uM after 24 hrs by RNase/propidium iodide staining-based flow cytometry (reference value: 82.57%). The assay is classed as functional.
The test system of assay [9] is DU-145. The assay can be described thus: Cell cycle arrest in human DU145 cells assessed as accumulation at S phase at 25 uM after 24 hrs by RNase/propidium iodide staining-based flow cytometry (reference value: 4.24%). Format: functional.
The test system of assay [10] is DU-145. Nature of the assay: Cell cycle arrest in human DU145 cells assessed as accumulation at G2/M phase at 50 uM after 24 hrs by RNase/propidium iodide staining-based flow cytometry (reference value: 13.7%). The assay is classed as functional.
Assay [11] relates to DU-145. Nature of the assay: Effect on NF-kappaB total expression in human DU145 cells at 5 to 25 uM after 24 hrs by Western blotting analysis. The assay is classed as functional, cell-based.
Assay [12] has as its system DU-145. Nature of the assay: Cell cycle arrest in human DU145 cells assessed as accumulation at S phase at 50 uM after 24 hrs by RNase/propidium iodide staining-based flow cytometry (reference value: 4.24%). The assay is classed as functional.
Assay [13] concerns DU-145. Nature of the assay: Cell cycle arrest in human DU145 cells assessed as accumulation at S phase at 5 uM after 24 hrs by RNase/propidium iodide staining-based flow cytometry (reference value: 4.24%). Format: functional.
Assay [14] deals with DU-145. The assay can be described thus: Cell cycle arrest in human DU145 cells assessed as accumulation at G1 phase at 15 uM after 24 hrs by RNase/propidium iodide staining-based flow cytometry (reference value: 82.57%). The assay is classed as functional.
In assay [15] the test system is DU-145. The assay can be described thus: Cell cycle arrest in human DU145 cells assessed as accumulation at S phase at 10 uM after 24 hrs by RNase/propidium iodide staining-based flow cytometry (reference value: 4.24%). Format: functional.
The subject of assay [16] is DU-145. Nature of the assay: Cell cycle arrest in human DU145 cells assessed as accumulation at G2/M phase at 10 uM after 24 hrs by RNase/propidium iodide staining-based flow cytometry (reference value: 13.7%). The assay is classed as functional.
Assay [17] deals with DU-145. Nature of the assay: Cell cycle arrest in human DU145 cells assessed as accumulation at G1 phase at 5 uM after 24 hrs by RNase/propidium iodide staining-based flow cytometry (reference value: 82.57%). The assay is classed as functional.
The subject of assay [18] is DU-145. The assay can be described thus: Cell cycle arrest in human DU145 cells assessed as accumulation at G1 phase at 10 uM after 24 hrs by RNase/propidium iodide staining-based flow cytometry (reference value: 82.57%). Format: functional.
Another assay has as its system Mycobacterium sp. Nature of the assay: Antimycobacterial activity against Mycobacterium sp. Format: functional, organism-based.
The test system of assay [19] is DU-145. Nature of the assay: Cell cycle arrest in human DU145 cells assessed as accumulation at G1 phase after 24 hrs by RNase/propidium iodide staining-based flow cytometry. The assay is classed as functional.
A short description of assay [20]: Cytotoxicity against mouse NIH/3T3 cells after 48 hrs by SRB method. The assay is classed as cell-based. The note with it: NIH3T3, 48 h.
Assay [21] deals with DU-145. The assay can be described thus: Cell cycle arrest in human DU145 cells assessed as accumulation at G2/M phase after 24 hrs by RNase/propidium iodide staining-based flow cytometry. Format: functional.

As for `c1csc(-c2ccc(-c3nc4ccccc4c4c3[nH]c3ccccc34)s2)c1`, the IC50 is 3.03 µM in the assay with A549; 0.52 µM in the assay with DU-145 [4]; 10.7 µM with MCF7; 6.59 µM in the assay with HeLa; 89.5 µM in assay [20]. In addition, the Activity in the assay with DU-145 [1] is reported as 89.28%; in the assay on DU-145 [2] it was 7.89%; in the assay with DU-145 [3], 12.38%; in the assay on DU-145 [5], 2.97%; with DU-145 [7], 9.6%; in the assay on DU-145 [8], 97.58%. For the same compound, the Activity was determined as 2.83% with DU-145 [9]; 1.89% in the assay with DU-145 [10]; 0.63% in the assay with DU-145 [12]; 3.61% in the assay on DU-145 [13]; 87.81% in the assay on DU-145 [14]; 3.79% in the assay on DU-145 [15]. Further, the Activity is 10.74% in the assay with DU-145 [16], 84.55% in the assay on DU-145 [17], 86.17% in the assay with DU-145 [18] and “Dose-dependent effect” with DU-145 [19]. Besides, the result with DU-145 [6] was Active. The outcome in the assay on DU-145 [11] and with Mycobacterium sp. was inactive.
For `Cc1cn([C@H]2C[C@H](N=[N+]=[N-])[C@@H](CO)O2)c(=O)[nH]c1=O` [ZIDOVUDINE], the half-maximal inhibitory concentration (IC50) in the assay with A549 was 16.2 µM; in the assay on DU-145 [4], 34.5 µM; with MCF7, 35 µM; with HeLa it was 65.5 µM; in [20] it was greater than 200 µM. The result with Mycobacterium sp. was inactive.
For the compound `COc1cccc2c1C(=O)c1c(O)c3c(c(O)c1C2=O)C[C@@](O)(C(=O)CO)C[C@@H]3O[C@H]1C[C@H](N)[C@H](O)[C@H](C)O1` [DOXORUBICIN], the IC50 was 1.11 µM in the assay on A549; 3.11 µM in the assay on DU-145 [4]; 2.31 µM in the assay with MCF7; 1.43 µM in the assay with HeLa; 5.91 µM in assay [20].
As to `CCc1ccc(-c2nc3ccccc3c3c2[nH]c2ccccc23)cc1`, the IC50 in the assay on A549 stood at 9.33 µM; in the assay on DU-145 [4], 46.2 µM; in the assay on MCF7 it was 9.84 µM; with HeLa, 19 µM; in assay [20] it was 200 µM. The outcome in the assay with Mycobacterium sp. was inactive.
With `Cc1cn([C@H]2C[C@H](N=[N+]=[N-])[C@@H](c3nc4ccccc4c4c3[nH]c3ccccc34)O2)c(=O)[nH]c1=O`, the IC50 was found to be 6.2 µM in the assay with A549; 10.1 µM with DU-145 [4]; 4.78 µM in the assay on MCF7; 17.3 µM in the assay with HeLa; 63.3 µM in assay [20]. The Activity stood at 62.12% in the assay with DU-145 [1]; 28.22% in the assay on DU-145 [2]; 15.78% with DU-145 [3]; 6.53% in the assay with DU-145 [5]; 19.79% in the assay on DU-145 [7]; 52.07% with DU-145 [8]. The Activity with DU-145 [9] was determined as 11.78%; in the assay with DU-145 [10], 39.57%; in the assay on DU-145 [12] it was 9.74%; with DU-145 [13] it was 4.16%; with DU-145 [14], 74.76%; in the assay with DU-145 [15] it was 5%. In addition, the Activity entry with DU-145 [21] was “Dose-dependent effect”; in the assay with DU-145 [16], 18.23%; in the assay with DU-145 [17] it was 80.75%; with DU-145 [18], 77.6%. Besides, the result in the assay with DU-145 [6] was Active. Further, the result in the assay on DU-145 [11] and in the assay with Mycobacterium sp. was inactive.
In the case of `Fc1cccc(Cl)c1-c1nc2ccccc2c2c1[nH]c1ccccc12`, the IC50 with A549 is 6.35 µM; in the assay on DU-145 [4], 14 µM; in the assay on MCF7 it was 13.3 µM; in the assay with HeLa it was 22.9 µM; in assay [20], 71.1 µM. In the assay on Mycobacterium sp., the outcome was inactive.
As to `c1ccc2nc(-c3nc4ccccc4c4c3[nH]c3ccccc34)ccc2c1`, the IC50 with A549 is 68.4 µM; in the assay with DU-145 [4], 41.5 µM; in the assay on MCF7, 52.6 µM; in the assay on HeLa, 69.9 µM; in assay [20] it was greater than 200 µM. Further, the result with Mycobacterium sp. was inactive.
As for `c1ccc(Oc2ccc(-c3nc4ccccc4c4c3[nH]c3ccccc34)cc2)cc1`, the IC50 with A549 was 13.2 µM; in the assay on DU-145 [4], 54 µM; with MCF7, 49.6 µM; with HeLa it was 42.8 µM; in assay [20], greater than 200 µM. Moreover, in the assay with Mycobacterium sp., the outcome was inactive.
Regarding `c1ccc(COc2ccc(-c3nc4ccccc4c4c3[nH]c3ccccc34)cc2)cc1`, the IC50 in the assay on A549 is 29.9 µM; in the assay with DU-145 [4] it was 70 µM; with MCF7, 58.9 µM; with HeLa, 67.9 µM; in assay [20] it was greater than 200 µM. Further, in the assay with Mycobacterium sp., the outcome was inactive.
`COc1ccc(-c2nc3ccccc3c3c2[nH]c2ccccc23)cc1`: the IC50 with A549 amounted to 23.8 µM; in the assay with DU-145 [4], 62 µM; in the assay on MCF7, 27.8 µM; in the assay with HeLa, 36.1 µM; in assay [20] it was 114 µM. Also, the outcome with Mycobacterium sp. was inactive.
On to `CC(C)c1nc2ccccc2c2c1[nH]c1ccccc12`, for which the IC50 is 18.1 µM with A549; 43.9 µM in the assay on DU-145 [4]; 20.2 µM with MCF7; 18.2 µM in the assay with HeLa; greater than 200 µM in assay [20]. For the same compound, in the assay on Mycobacterium sp., the outcome was inactive.
As to `FC(F)(F)c1ccc(-c2nc3ccccc3c3c2[nH]c2ccccc23)cc1`, the IC50 in the assay on A549 was found to be 3.71 µM; with DU-145 [4], 4.19 µM; with MCF7, 5.07 µM; with HeLa it was 20.8 µM; in assay [20], 110 µM. Moreover, the outcome in the assay with Mycobacterium sp. was inactive.
`Brc1ccc(-c2nc3ccccc3c3c2[nH]c2ccccc23)cc1`: the IC50 in the assay on A549 is 17.1 µM; with DU-145 [4], 18.6 µM; in the assay with MCF7, 23.4 µM; in the assay with HeLa it was 49.3 µM; in [20] it was greater than 200 µM. Moreover, the outcome with Mycobacterium sp. was inactive.
Take `C=CCOc1ccc(-c2nc3ccccc3c3c2[nH]c2ccccc23)cc1`: the half-maximal inhibitory concentration (IC50) in the assay with A549 was 6.22 µM; in the assay with DU-145 [4], 23.6 µM; with MCF7, 11.9 µM; in the assay with HeLa, 27.5 µM; in [20], greater than 200 µM. Besides, the outcome in the assay on Mycobacterium sp. was inactive.
